In patent US6787566B2, “Breakers of advanced glycation endproducts” (City of Hope, priority 1999, dated 2004):
“Also recorded” adds a separate entry of the source.

Tests used:
Format in all cases: biochemical
[1] = target: T1, AGE cross-links in tail tendon collagen of diabetic rats (Rattus norvegicus, UniProt P02454+P02466); experiment: Papain digestibility assay, collagen-linked fluorescence; details: for Papain digestion Assay (% decrease in fluorescence): relative to untreated collagen of diabetic rats
T1 construct: collagen was isolated from the tail tendon of diabetic and normal controls; from tissue; host or cells: tail tendon of streptozotocin-diabetic male Sprague-Dawley rats
T1 sequence (P02454 152-1207 limits assumed): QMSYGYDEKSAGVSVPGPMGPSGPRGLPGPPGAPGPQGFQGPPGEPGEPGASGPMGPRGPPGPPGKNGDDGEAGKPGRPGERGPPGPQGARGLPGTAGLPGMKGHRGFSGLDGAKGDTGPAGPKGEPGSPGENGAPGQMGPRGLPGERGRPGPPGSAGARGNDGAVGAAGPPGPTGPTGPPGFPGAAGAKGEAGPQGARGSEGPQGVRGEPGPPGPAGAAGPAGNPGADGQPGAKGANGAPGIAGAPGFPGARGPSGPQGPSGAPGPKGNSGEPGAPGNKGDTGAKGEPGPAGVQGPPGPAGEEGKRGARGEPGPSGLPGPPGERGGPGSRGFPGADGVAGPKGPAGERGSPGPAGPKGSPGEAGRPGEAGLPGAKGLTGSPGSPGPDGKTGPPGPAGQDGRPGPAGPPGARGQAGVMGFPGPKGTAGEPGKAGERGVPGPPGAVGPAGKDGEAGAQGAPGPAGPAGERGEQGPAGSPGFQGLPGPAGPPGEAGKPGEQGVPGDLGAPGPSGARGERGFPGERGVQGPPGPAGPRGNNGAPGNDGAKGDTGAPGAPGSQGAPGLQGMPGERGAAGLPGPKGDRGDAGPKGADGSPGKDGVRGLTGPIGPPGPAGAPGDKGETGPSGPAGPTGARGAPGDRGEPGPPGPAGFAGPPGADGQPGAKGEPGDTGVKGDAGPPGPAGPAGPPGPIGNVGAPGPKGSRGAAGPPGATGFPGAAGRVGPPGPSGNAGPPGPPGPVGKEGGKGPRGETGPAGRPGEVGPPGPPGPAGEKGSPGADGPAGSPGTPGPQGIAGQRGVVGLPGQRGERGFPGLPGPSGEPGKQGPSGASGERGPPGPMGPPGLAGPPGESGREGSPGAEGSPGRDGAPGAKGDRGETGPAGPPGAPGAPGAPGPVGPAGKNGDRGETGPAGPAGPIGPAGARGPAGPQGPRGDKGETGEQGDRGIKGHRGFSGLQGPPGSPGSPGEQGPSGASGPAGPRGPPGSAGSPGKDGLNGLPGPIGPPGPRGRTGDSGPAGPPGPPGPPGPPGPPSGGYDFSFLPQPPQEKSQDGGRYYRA
T1 sequence (P02466 86-1125 limits assumed): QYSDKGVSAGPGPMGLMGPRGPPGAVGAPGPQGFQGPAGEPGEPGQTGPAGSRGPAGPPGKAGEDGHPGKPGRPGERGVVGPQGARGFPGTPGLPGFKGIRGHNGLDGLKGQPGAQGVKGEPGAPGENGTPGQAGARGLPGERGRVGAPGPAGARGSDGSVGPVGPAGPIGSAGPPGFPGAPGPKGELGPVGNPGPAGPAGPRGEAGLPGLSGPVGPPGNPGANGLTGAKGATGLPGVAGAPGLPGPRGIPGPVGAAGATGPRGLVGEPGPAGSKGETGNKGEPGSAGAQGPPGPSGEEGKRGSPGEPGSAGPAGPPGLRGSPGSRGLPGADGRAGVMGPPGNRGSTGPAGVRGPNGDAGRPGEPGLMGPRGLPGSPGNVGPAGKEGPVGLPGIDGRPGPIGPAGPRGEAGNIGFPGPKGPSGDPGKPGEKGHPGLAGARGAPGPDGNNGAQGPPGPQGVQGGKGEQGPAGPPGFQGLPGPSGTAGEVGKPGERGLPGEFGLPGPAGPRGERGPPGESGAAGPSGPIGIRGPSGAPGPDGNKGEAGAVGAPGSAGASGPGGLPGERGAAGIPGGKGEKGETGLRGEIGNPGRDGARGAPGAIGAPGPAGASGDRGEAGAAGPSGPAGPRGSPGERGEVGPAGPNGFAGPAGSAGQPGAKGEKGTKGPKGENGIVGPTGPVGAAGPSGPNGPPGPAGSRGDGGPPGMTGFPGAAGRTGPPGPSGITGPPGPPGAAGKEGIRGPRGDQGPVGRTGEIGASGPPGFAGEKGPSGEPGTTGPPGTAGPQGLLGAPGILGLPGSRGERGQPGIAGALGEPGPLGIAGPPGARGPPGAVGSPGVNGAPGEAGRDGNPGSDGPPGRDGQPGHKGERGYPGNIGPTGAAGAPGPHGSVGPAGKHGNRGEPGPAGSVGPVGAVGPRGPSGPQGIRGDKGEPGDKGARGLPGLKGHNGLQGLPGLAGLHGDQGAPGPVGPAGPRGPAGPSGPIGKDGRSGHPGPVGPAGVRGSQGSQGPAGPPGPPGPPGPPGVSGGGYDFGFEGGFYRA
Description: For this study, diabetes was first induced in male Sprague-Dawley rats (Charles River, Wilmington, Mass.) weighing about 150-175 g by injection of streptozotocin (65 mg/kg, i.p.). […] Thirty-two weeks later, the rats are sacrificed and collagen was isolated from the tail tendon of diabetic and normal controls as described by Kochakian et al. (1996). Tail tendons were dissected free of adhering tissues, washed thoroughly in PBS containing protease inhibitors (1 mM each of EDTA, PMSF, iodoacetamide and benzamidine hydrochloride), patted dry onto a paper towel, rolled into a ball, freeze dried, and stored at -20° C. in sealed containers until used. Representative samples of tail tendon collagen were pulled from its bulk and were cut approximately 20-25 mm in size. […] Untreated control tubes include tail tendon collagen and PBS buffer only. The tubes were incubated at 37° C. for 24 hours. After incubation, the tubes were centrifuged at 10,000 rpm and the supernatants discarded. The collagen samples were rinsed with PBS, vortexed thoroughly, centrifuged briefly, and the supernatant discarded. This rinsing was repeated twice. On final rinse, the supernatant was discarded and the tubes inverted for one minute for the samples to air dry. These collagen samples were used immediately in the acid solubility and digestion studies. […] Digests were centrifuged at 10,000 rpm for 60 minutes at 4° C., and the supernatant separated from the pellet. […] Aliquots of the supernatant digests were also subjected to acid hydrolysis followed by hydroxyproline measurements. The results were expressed as fluorescence units per micromole of hydroxyproline content of each sample. Percent decrease in fluorescence was calculated as above. […] The tubes were autoclaved in a steam sterilizer at 250° F. for 3.5 hours. The samples were taken to dryness using a Savant Speed Vac concentrator with heat, and stored at 4° C. until assayed. The dried samples were rehydrated with 200 μL deionized water, and aliquots were assayed for their hydroxyproline content in a 96-well microtiter plate as described by […] et al. (1997).

[2] = target: T1, AGE cross-links in tail tendon collagen of diabetic rats; experiment: Total pepsin digestion assay, collagen-linked fluorescence; details: for Pepsin Digestion Assay (% decrease in fluorescence): relative to untreated collagen of diabetic rats
Description: For this study, diabetes was first induced in male Sprague-Dawley rats (Charles River, Wilmington, Mass.) weighing about 150-175 g by injection of streptozotocin (65 mg/kg, i.p.). […] Thirty-two weeks later, the rats are sacrificed and collagen was isolated from the tail tendon of diabetic and normal controls as described by Kochakian et al. (1996). Tail tendons were dissected free of adhering tissues, washed thoroughly in PBS containing protease inhibitors (1 mM each of EDTA, PMSF, iodoacetamide and benzamidine hydrochloride), patted dry onto a paper towel, rolled into a ball, freeze dried, and stored at -20° C. in sealed containers until used. Representative samples of tail tendon collagen were pulled from its bulk and were cut approximately 20-25 mm in size. […] Untreated control tubes include tail tendon collagen and PBS buffer only. The tubes were incubated at 37° C. for 24 hours. After incubation, the tubes were centrifuged at 10,000 rpm and the supernatants discarded. The collagen samples were rinsed with PBS, vortexed thoroughly, centrifuged briefly, and the supernatant discarded. This rinsing was repeated twice. On final rinse, the supernatant was discarded and the tubes inverted for one minute for the samples to air dry. These collagen samples were used immediately in the acid solubility and digestion studies. […] The clear supernatant containing digested collagen was collected and used for collagen-linked fluorescence. […] Fluorescence of the samples was quantified at 365 nm excitation and 418 nm emission. All fluorescence values were corrected for fluorescence of the pepsin in phosphate buffer and expressed as arbitrary units per micromoles of hydroxyproline content of the collagen sample. The hydroxyproline content of each collagen sample was measured following acid hydrolysis, using a microassay method as described ([…] et al., 1997). […] The tubes were autoclaved in a steam sterilizer at 250° F. for 3.5 hours. The samples were taken to dryness using a Savant Speed Vac concentrator with heat, and stored at 4° C. until assayed. The dried samples were rehydrated with 200 μL deionized water, and aliquots were assayed for their hydroxyproline content in a 96-well microtiter plate as described by […] et al. (1997).

[3] = target: T1, AGE cross-links in tail tendon collagen of diabetic rats; experiment: Tendon collagen solubility in weak acid after in vitro treatment; details: for Acid Solubility Test (% increase in solubility): relative to untreated collagen of diabetic rats
Description: For this study, diabetes was first induced in male Sprague-Dawley rats (Charles River, Wilmington, Mass.) weighing about 150-175 g by injection of streptozotocin (65 mg/kg, i.p.). […] Tail tendons were dissected free of adhering tissues, washed thoroughly in PBS containing protease inhibitors (1 mM each of EDTA, PMSF, iodoacetamide and benzamidine hydrochloride), patted dry onto a paper towel, rolled into a ball, freeze dried, and stored at −20° C. in sealed containers until used.
Representative samples of tail tendon collagen were pulled from its bulk and were cut approximately 20-25 mm in size. The samples were then placed inside 1.5 mL microfuge tubes and suspended with 1 mL of the desired concentration of the AGE-breaker compound in PBS buffer (pH 7.4) containing 0.02 g/L NaN3. Untreated control tubes include tail tendon collagen and PBS buffer only. The tubes were incubated at 37° C. for 24 hours. After incubation, the tubes were centrifuged at 10,000 rpm and the supernatants discarded. The collagen samples were rinsed with PBS, vortexed thoroughly, centrifuged briefly, and the supernatant discarded. This rinsing was repeated twice. On final rinse, the supernatant was discarded and the tubes inverted for one minute for the samples to air dry. These collagen samples were used immediately in the acid solubility and digestion studies.
For determination of the amount of acid-insoluble collagen in samples treated and untreated with the AGE-breaker compound, 5 mg aliquots of dried tail-tendon collagen from diabetic and non-diabetic rats, all in duplicates, were added to 2 mL of 0.05 M acetic acid and stirred at 4° C. for 24 hours. The mixture was homogenized in a polytron homogenizer and stirred for an additional 24 hours at 4° C. The suspension was then centrifuged at 9000×g for 60 minutes at 4° C. The collagen in the clear supernatant was defined as the acid soluble collagen, and the gel-like pellet as the acid insoluble collagen.

[4] = target: T2, cross-linked collagen-AGE-BSA (Rattus norvegicus, UniProt P02454+P02466); experiment: AGE-BSA-collagen ELISA: cleavage of glycated BSA cross-linked to collagen; details: for AGE-breaking activity (cleavage of cross-linked collagen-AGE-BSA), in words: 0.1-10 mM final concentration, FIGS. 1A and 1C; for Concentration dependence of AGE-BSA-collagen crosslink breaking, in words: FIGS. 1A-C; for Overall AGE-breaking property, in words: overall judgement of the patent's tests
T2 construct: purchased Biocoat (Collaborative Research, Bedford, Mass.) for the collagen-coated plates; Sigma Chemical co. for bovine serum albumin
T2 sequence (P02454 152-1207 limits assumed): as the sequence (P02454 152-1207 limits assumed) above
T2 sequence (P02466 86-1125 limits assumed): as the sequence (P02466 86-1125 limits assumed) above
Description: In vitro evaluation of the ability of the AGE-breaker compounds to cleave and break cross-linking of glycated BSA (AGE-BSA) (prepared as described (Rahbar et al., 1999)) to the rat-tail-tendon-collagen was by a special ELISA (Vasan et al., 1996). The rat-tail-tendon-collagen coated plates were first blocked first with 300 μL of Superblock blocking buffer (Pierce Chemicals, Rockford, Ill.) for one hour. The blocking solution was removed from the wells by washing the plates twice with PBS-0.05% Tween 20 (PBS-T) using a Dynatech ELISA-plate washer. Cross-linking of various concentrations of AGE-BSA (0, 0.01, 0.05, 0.1, 0.25, 0.50, and 1.0 μg per well) to rat-tail-collagen coated plates was performed without the testing compound, and the plates were incubated for 5 hours at 37° C. After washing the wells three times with PBS-T to remove the unattached AGE-BSA, test concentrations of the compound (50 μL/well) dissolved in PBS were added to wells in triplicate and incubation continued at 37° C. overnight. After washing with PBS-T, the amount of BSA remaining attached to the tail collagen plate was then quantified by addition of rabbit anti-BSA polyclonal antibodies (50 μL/well) for 1 hour at 37° C. The wells were then washed three times with PBS-T and developed with the chromogenic substrate ABTS (100 μL/well). Absorbance was measured at 410 nm in microplate reader (BioRad, Hercules, Calif.).
The percentage breaking activity is calculated by the following formula: 100×[(A410, PBS control)−(A410, AGE-breaker compound)]/[A410, PBS control].

Compound	Papain digestion Assay (% decrease in fluorescence) ([1]; 0.1 mM) [%]	Papain digestion Assay (% decrease in fluorescence) ([1]; 1.0 mM) [%]	Papain digestion Assay (% decrease in fluorescence) ([1]; 10 mM) [%]	Pepsin Digestion Assay (% decrease in fluorescence) ([2]; 0.1 mM) [%]	Pepsin Digestion Assay (% decrease in fluorescence) ([2]; 1.0 mM) [%]	Pepsin Digestion Assay (% decrease in fluorescence) ([2]; 10 mM) [%]	Acid Solubility Test (% increase in solubility) ([3]; 0.1 mM) [%]	Acid Solubility Test (% increase in solubility) ([3]; 1.0 mM) [%]	Acid Solubility Test (% increase in solubility) ([3]; 10 mM) [%]	AGE-breaking activity (cleavage of cross-linked collagen-AGE-BSA), in words [4]	AGE-linked fluorescence of collagen after papain digestion, in words ([1]; collagen of diabetic rats, P<0.05 for LR23, FIG. 4B)	AGE-linked fluorescence of collagen after pepsin digestion, in words ([2]; collagen of diabetic rats, P<0.05 for LR23, FIG. 3B)	Collagen solubility in weak acid, in words ([3]; collagen of diabetic rats, P<0.05 for LR23, FIG. 2B)	Concentration dependence of AGE-BSA-collagen crosslink breaking, in words [4]	Overall AGE-breaking property, in words [4]	Overall AGE-breaking property, in words ([4]; listed as metformin)
4-[(3,5-dichlorophenylureidophenoxyisobutyryl]-4-aminobenzoic acid [LR99]	23.5	35.9	63.6	9.8	16.1	12.6	1.6	7.3	16.0	very effective AGE-breakers						
CC(C)(Oc1ccc(NC(=O)Nc2cc(Cl)cc(Cl)c2)cc1)C(=O)NC1(C(=O)O)CCCCC1 [LR23, 4-(3,5-dichlorophenylureido)phenoxyisobutyryl-1-amidocyclohexane-1-carboxylic acid]	16.7	25.9	47.2	7.3	15.5	18.7	18.3	19.4	32.7	very effective AGE-breakers	reduced the AGE-linked fluorescence	reduced the AGE-linked fluorescence	significantly increased solubility	more effective breakers at higher concentrations	most effective AGE-breakers	
CN(C)C(=N)NC(=N)N [Metformin, 1,1-dimethylbiguanide, reference compound]														more potent at lower concentrations; also recorded: highly effective at low concentrations	moderate AGE-breaking properties	moderate AGE-breaker
L-bis-[4-(4-chlorobenzamidophenoxyisobutyryl)cystine] [LR20]	18.3	18.4	24.3	7.1	8.9	27.8	1.5	7.3	24.0	very effective AGE-breakers				more effective breakers at higher concentrations		
